Laboratory results reported in US9796711B2, “Substituted pyrazolo[3,4-b]pyridin-6-carboxylic acids and method of use” (AbbVie S.àr.l., priority 2015, dated 2017).
Where two headings read alike, the source gives them in different places.

Molecular target: T1, CFTR ΔF508 (Homo sapiens, UniProt P13569, DEL508-508)
T1 construct: bronchial epithelial cells isolated from CF patients homozygous for the CFTR ΔF508 mutation; McGill University; Asterand; University of North Carolina hAEC-CF; host or cells: primary human bronchial epithelial cells from CF patients homozygous for ΔF508
T1 sequence (P13569 with tags, fused parts or gaps DEL508-508): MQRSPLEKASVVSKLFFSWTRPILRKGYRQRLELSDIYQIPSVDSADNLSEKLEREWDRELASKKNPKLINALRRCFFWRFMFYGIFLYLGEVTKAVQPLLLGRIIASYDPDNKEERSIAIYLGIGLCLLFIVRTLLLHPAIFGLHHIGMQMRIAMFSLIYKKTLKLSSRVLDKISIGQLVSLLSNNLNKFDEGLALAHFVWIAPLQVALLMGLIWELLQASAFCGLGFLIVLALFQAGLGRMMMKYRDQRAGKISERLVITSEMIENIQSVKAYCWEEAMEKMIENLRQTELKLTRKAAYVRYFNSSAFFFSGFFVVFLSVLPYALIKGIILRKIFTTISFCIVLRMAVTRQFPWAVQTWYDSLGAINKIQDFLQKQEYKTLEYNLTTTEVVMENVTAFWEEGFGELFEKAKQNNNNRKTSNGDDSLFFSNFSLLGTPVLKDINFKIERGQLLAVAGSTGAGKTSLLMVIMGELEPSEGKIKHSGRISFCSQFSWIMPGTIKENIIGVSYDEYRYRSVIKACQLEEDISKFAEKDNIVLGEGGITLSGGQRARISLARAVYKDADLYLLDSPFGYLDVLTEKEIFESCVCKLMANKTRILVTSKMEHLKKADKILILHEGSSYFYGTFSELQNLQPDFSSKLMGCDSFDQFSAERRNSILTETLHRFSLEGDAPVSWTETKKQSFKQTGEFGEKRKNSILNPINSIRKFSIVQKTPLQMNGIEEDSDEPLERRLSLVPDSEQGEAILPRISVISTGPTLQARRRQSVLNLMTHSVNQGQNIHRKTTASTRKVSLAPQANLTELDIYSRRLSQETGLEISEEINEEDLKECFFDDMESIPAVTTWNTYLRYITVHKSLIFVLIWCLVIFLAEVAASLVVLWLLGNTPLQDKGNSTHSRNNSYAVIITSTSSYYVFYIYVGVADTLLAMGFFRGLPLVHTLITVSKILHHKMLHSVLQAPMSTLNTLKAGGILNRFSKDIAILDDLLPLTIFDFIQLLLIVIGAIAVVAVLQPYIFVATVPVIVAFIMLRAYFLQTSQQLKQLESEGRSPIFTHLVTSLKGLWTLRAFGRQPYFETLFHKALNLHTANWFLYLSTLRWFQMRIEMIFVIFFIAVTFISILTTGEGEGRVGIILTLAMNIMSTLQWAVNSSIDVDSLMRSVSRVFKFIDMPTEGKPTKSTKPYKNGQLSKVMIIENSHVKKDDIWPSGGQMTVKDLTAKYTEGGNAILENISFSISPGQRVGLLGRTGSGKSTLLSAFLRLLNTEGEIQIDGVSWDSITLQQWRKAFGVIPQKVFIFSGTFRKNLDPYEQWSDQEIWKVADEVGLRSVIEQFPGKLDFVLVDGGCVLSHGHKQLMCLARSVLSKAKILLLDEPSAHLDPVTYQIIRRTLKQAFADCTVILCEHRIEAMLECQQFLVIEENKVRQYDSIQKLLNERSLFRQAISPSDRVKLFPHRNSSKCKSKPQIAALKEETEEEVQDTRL
Assay: Chronic TECC assay on primary bronchial epithelial cells (corrector, co-corrector and potentiator)
Assay type: cell-based
Method: Primary Bronchial Epithelial Cells Protocol
The TECC (Tranepithelial Clamp Circuit, EP-design) assay measures the functionality of the cystic fibrosis Transmembrane Conductance regulator (CFTR) by measuring the short circuit current (Isc) generated over the basolateral and apical membrane of lung epithelial cells. In TECC the transepithelial potential PD and transepithelial resistance (Rt)) are measured in an open circuit and transformed to Ieq using Ohm's law. 24 Wells can be measured simultaneously allowing a higher throughput compared to Ussing chambers.
For this purpose, bronchial epithelial cells isolated from CF patients homozygous for the CFTR ΔF508 mutation (hAEC-CF, Epithelix, Geneva, Switzerland; McGill University, Montreal, Qc; Asterand, Detroit, Mich.; University of North Carolina, Chapel Hill, N.C.) are plated on type IV collagen-coated Transwell® supports (Costar). Human airway epithelia are generated by provision of an air-liquid interface for 21 days to form well-differentiated polarized cultures that resemble in vivo pseudo-stratified ciliated epithelium (Fulcher, M. L., Gabriel, S., Burns, K. A., Yankaskas, J. R., Randell, S. H., 2005. Well-differentiated human airway epithelial cell cultures. Methods Mol. Med. 107, 183-206). The differentiated cells are treated with test corrector compound(s) (corrector alone or in combination with co-corrector, 4-[(2R,4R)-4-({[1-(2,2-difluoro-1,3-benzodioxol-5-yl)cyclopropyl]carbonyl}amino)-7-methoxy-3,4-dihydro-2H-chromen-2-yl]benzoic acid (G924806/A-1618261) (“acute”) or test corrector compounds, co-corrector and potentiator, N-(3-carbamoyl-5,5,7,7-tetramethyl-4,7-dihydro-5H-thieno[2,3-c]pyran-2-yl)-1H-pyrazole-5-carboxamide GLPG1837, (“chronic”) for 24 hours basolaterally to allow sufficient expression of properly folded CFTR protein on the membrane. All compound plates contained negative controls (DMSO) and positive controls (0.15 μM, 4-[(2R,4R)-4-({[1-(2,2-difluoro-1,3-benzodioxol-5-yl)cyclopropyl]carbonyl}amino)-7-(difluoromethoxy)-3,4-dihydro-2H-chromen-2-yl]benzoic acid).
For electrophysiological recording of the “chronic” experiments, the human airway epithelia are mounted in the TECC heating plate for electrophysiological measurement and kept at 37° C. The epithelia are bathed in a NaCl-Ringer solution (120 mM NaCl, 25 mM NaHCO3, 1.2 mM CaCl2, 1.2 mM MgCl2, 0.8 mM KH2PO4, 0.8 mM K2HPO4, pH 7.4, 5 mM glucose) on both the basolateral and apical sides. Test compounds (corrector, co-corrector, 4-[(2R,4R)-4-({[1-(2,2-difluoro-1,3-benzodioxol-5-yl)cyclopropyl]carbonyl}amino)-7-(difluoromethoxy)-3,4-dihydro-2H-chromen-2-yl]benzoic acid, and potentiator, N-(3-carbamoyl-5,5,7,7-tetramethyl-4,7-dihydro-5H-thieno[2,3-c]pyran-2-yl)-1H-pyrazole-5-carboxamide), are re-added to the recording solution prior to measurement. Apical amiloride is used to inhibit the endogenous ENaC currents while forskolin is applied on both apical and basolateral side to stimulate CFTR. Measurements are done during a 20 minute timeframe with recordings every 2 minutes. The increase in Ieq is used as a measure for the increased CFTR activity, EC50 values can be generated by measuring impact of different concentrations of compound on Ieq on primary cells, for this purpose each transwell is treated with a different compound concentration. Inhibitor-172, an inhibitor specific for CFTR, is used to test the specificity of the tested compounds. Raw data were normalized to percentage activity values using the equation: 100×(Sample−Negative control)/(Positive control−Negative Control).

[1] = chronic TECC, AUC = full area under the curve upon forskolin stimulation, with co-corrector and potentiator, 24 hours
[2] = chronic TECC, AUC = full area under the curve upon forskolin stimulation, with co-corrector and potentiator, 24 hours, read-out: EC50 (nM) (AUC)
[3] = chronic TECC, Ieq = calculations based on the maximum current, with co-corrector and potentiator, 24 hours
[4] = chronic TECC, Ieq = calculations based on the maximum current, with co-corrector and potentiator, 24 hours, read-out: EC50 (nM) (Ieq)

COCCN1CCN(c2ccc(-c3cc(C(=O)O)nc4c3c(C3CCC3)nn4C3CCCCC3)cn2)CC1 [compound 878, 3-cyclobutyl-1-cyclohexyl-4-{6-[4-(2-methoxyethyl)piperazin-1-yl]pyridin-3-yl}-1H-pyrazolo[3,4-b]pyridine-6-carboxylic acid]
% Activity at 1 μM (AUC**) [1]: 170%

O=C(O)c1cc(N2CCC3(CC2)CCN(C2CC2)CC3)c2c(C3CCC3)nn(-c3ccc(F)cc3)c2n1 [compound 887, 3-cyclobutyl-4-(9-cyclopropyl-3,9-diazaspiro[5.5]undecan-3-yl)-1-(4-fluorophenyl)-1H-pyrazolo[3,4-b]pyridine-6-carboxylic acid]
% Activity at 1 μM (AUC**) [1]: 273.3871%
EC50 [2]: 1340 nM

COCCC1CCN(c2cc(C(=O)O)nc3c2c(C(C)C)nn3-c2cccc(C)c2)CC1 [compound 228, 4-[4-(2-methoxyethyl)piperidin-1-yl]-1-(3-methylphenyl)-3-(propan-2-yl)-1H-pyrazolo[3,4-b]pyridine-6-carboxylic acid]
% Activity at 1 μM (Ieq*) [3]: 280%
EC50 [4]: < 30 nM

COC[C@H]1CCN(CC2CCN(c3cc(C(=O)O)nc4c3c(C3CCC3)nn4-c3ccccc3)CC2)C1 [compound 804, 3-cyclobutyl-4-(4-{[(3S)-3-(methoxymethyl)pyrrolidin-1-yl]methyl}piperidin-1-yl)-1-phenyl-1H-pyrazolo[3,4-b]pyridine-6-carboxylic acid]
% Activity at 1 μM (AUC**) [1]: 290%

CN(C)C[C@@H](F)C1CCN(c2cc(C(=O)O)nc3c2c(C2CCC2)nn3-c2ccccc2)CC1 [compound 456, 3-cyclobutyl-4-{4-[(1S)-2-(dimethylamino)-1-fluoroethyl]piperidin-1-yl}-1-phenyl-1H-pyrazolo[3,4-b]pyridine-6-carboxylic acid]
EC50 [2]: 120 nM

CC1CCN(CCC2CCN(c3cc(C(=O)O)nc4c3c(C3CCC3)nn4-c3ccccc3)CC2)CC1 [compound 687, 3-cyclobutyl-4-{4-[2-(4-methylpiperidin-1-yl)ethyl]piperidin-1-yl}-1-phenyl-1H-pyrazolo[3,4-b]pyridine-6-carboxylic acid]
% Activity at 1 μM (AUC**) [1]: 263.3333%
EC50 [2]: 53.5 nM

CC(C)c1nn(-c2ccc(F)cc2)c2nc(C(=O)O)cc(N3CCC(C(C)(C)O)CC3)c12 [compound 656, 1-(4-fluorophenyl)-4-[4-(2-hydroxypropan-2-yl)piperidin-1-yl]-3-(propan-2-yl)-1H-pyrazolo[3,4-b]pyridine-6-carboxylic acid]
EC50 [2]: 48 nM

O=C(O)c1cc(N2CCC(CCN3CCOCC3)CC2)c2c(C3CCC3)nn(-c3ccccc3)c2n1 [compound 575, 3-cyclobutyl-4-{4-[2-(morpholin-4-yl)ethyl]piperidin-1-yl}-1-phenyl-1H-pyrazolo[3,4-b]pyridine-6-carboxylic acid]
EC50: 100 nM
% Activity at 1 μM (AUC**) [1]: 290%

CC(C)c1nn(-c2ccnc(N3CCOCC3)c2)c2nc(C(=O)O)cc(-c3ccc(N4CCOCC4)cc3)c12 [compound 201, 4-[4-(morpholin-4-yl)phenyl]-1-[2-(morpholin-4-yl)pyridin-4-yl]-3-(propan-2-yl)-1H-pyrazolo[3,4-b]pyridine-6-carboxylic acid]
% Activity at 1 μM (AUC**) [1]: 254%
EC50 [2]: < 30 nM

CC(C)c1nn(-c2ccc(F)cc2)c2nc(C(=O)O)cc(N3CCC(C(C)N4CCCC4)CC3)c12 (stereo not shown) [compound 789, 1-(4-fluorophenyl)-3-(propan-2-yl)-4-{4-[1-(pyrrolidin-1-yl)ethyl]piperidin-1-yl}-1H-pyrazolo[3,4-b]pyridine-6-carboxylic acid]
% Activity at 1 μM (AUC**) [1]: 235%

CC(C)Oc1cccc(-n2nc(C3CCC3)c3c(N4CCC(N5CCOCC5)CC4)cc(C(=O)O)nc32)n1 [compound 924, 3-cyclobutyl-4-[4-(morpholin-4-yl)piperidin-1-yl]-1-{6-[(propan-2-yl)oxy]pyridin-2-yl}-1H-pyrazolo[3,4-b]pyridine-6-carboxylic acid]
% Activity at 3 μM (AUC) [1]: 235.9027%
EC50 [2]: 10.6 nM

CC(C1CCN(c2cc(C(=O)O)nc3c2c(C2CCC2)nn3-c2ccccc2)CC1)N1CCOCC1 (stereo not shown) [compound 683, 3-cyclobutyl-4-{4-[1-(morpholin-4-yl)ethyl]piperidin-1-yl}-1-phenyl-1H-pyrazolo[3,4-b]pyridine-6-carboxylic acid]
% Activity at 1 μM (AUC**) [1]: 196.675%

CCOC(=O)N1CCN(c2cc(C(=O)O)nc3c2c(C2CCC2)nn3-c2ccccc2)CC1 [compound 539, 3-cyclobutyl-4-[4-(ethoxycarbonyl)piperazin-1-yl]-1-phenyl-1H-pyrazolo[3,4-b]pyridine-6-carboxylic acid]
% Activity at 1 μM (AUC**) [1]: 557%

O=C(O)c1cc(N2CCC(N3CCC(O)CC3)CC2)c2c(C3CCC3)nn(-c3ccc(F)cc3)c2n1 [compound 898, 3-cyclobutyl-1-(4-fluorophenyl)-4-(4-hydroxy[1,4′-bipiperidin]-1′-yl)-1H-pyrazolo[3,4-b]pyridine-6-carboxylic acid]
% Activity at 3 μM (AUC) [1]: 150.7853%
EC50 [2]: 2640 nM

CO[C@H]1CCC[C@@H](n2nc(C(C)C)c3c(-c4ccc(N5CCOCC5)cc4)cc(C(=O)O)nc32)C1 [compound 205, 1-[(1R,3S)-3-methoxycyclohexyl]-4-[4-(morpholin-4-yl)phenyl]-3-(propan-2-yl)-1H-pyrazolo[3,4-b]pyridine-6-carboxylic acid]
% Activity at 1 μM (Ieq*) [3]: 140%
EC50 [4]: > 1000 nM

O=C(O)c1cc(N2CCC(CCN3CCCC3)CC2)c2c(C3CCC3)nn(-c3ccccc3)c2n1 [compound 574, 3-cyclobutyl-1-phenyl-4-{4-[2-(pyrrolidin-1-yl)ethyl]piperidin-1-yl}-1H-pyrazolo[3,4-b]pyridine-6-carboxylic acid]
% Activity at 1 μM (AUC**) [1]: 190%

CC(C)OC(=O)N1CC[C@@H]2CN(c3cc(C(=O)O)nc4c3c(C3CCC3)nn4-c3ccccc3)CC[C@@H]21 (racemic) [compound 610, rac-3-cyclobutyl-1-phenyl-4-[(3aR,7aS)-1-{[(propan-2-yl)oxy]carbonyl}octahydro-5H-pyrrolo[3,2-c]pyridin-5-yl]-1H-pyrazolo[3,4-b]pyridine-6-carboxylic acid]
% Activity at 1 μM (AUC**) [1]: 471%

COCCN1CCC2(CC1)CCN(c1cc(C(=O)O)nc3c1c(C1CCC1)nn3-c1ccc(F)cc1)CC2 [compound 897, 3-cyclobutyl-1-(4-fluorophenyl)-4-[9-(2-methoxyethyl)-3,9-diazaspiro[5.5]undecan-3-yl]-1H-pyrazolo[3,4-b]pyridine-6-carboxylic acid]
% Activity at 1 μM (AUC**) [1]: 375%

O=C(O)c1cc(N2CCC(N3CCN(C4CC4)CC3)CC2)c2c(C3CCC3)nn(-c3ccccc3)c2n1 [compound 738, 3-cyclobutyl-4-[4-(4-cyclopropylpiperazin-1-yl)piperidin-1-yl]-1-phenyl-1H-pyrazolo[3,4-b]pyridine-6-carboxylic acid]
% Activity at 1 μM (AUC**) [1]: 230%
EC50 [2]: 23 nM
